Columns and labels:
Format in all cases: cell-based, Staphylococcus aureus
[1] = tested on: S. aureus ATCC 25923; experiment: Minimum Inhibitory Concentration (MIC), CLSI M07-A9 modified for 96 well plates, planktonic bacteria; settings: overnight incubation
Protocol: (§1) Antibacterial and antibiofilm assay were performed on human pathogens and industrial microorganisms associated with contamination: Staphylococcus aureus (ATCC 25923 and ATCC 12600), S. epidermidis (ATCC 12228 and ATCC 14990), Pseudomonas aeruginosa (ATCC 27853), E. coli (ATCC 25922), C. albicans ATCC 18804), oral flora bacteria Streptococcus mutans (ATCC 25175) and S. gordonii (ATCC 33399), and/or marine biofilm former Cobetia marina (ATCC 25374).
(§2) Antibacterial assays were performed on planktonic bacteria to determine the Minimum Inhibitory Concentrations (MICs) and Minimum Bactericidal Concentrations (MBCs) for the compounds. MICs are defined as the lowest concentration of an antimicrobial that will inhibit the visible growth of a microorganism after overnight incubation. The MICs were determined using the standard CLSI Method M07-A9 for Dilution Antimicrobial Susceptibility Tests for Bacteria That Grow Aerobically modified for 96 well plates. MBCs are the lowest concentration of antimicrobial that kill the organism. MBCs were determined using the standard CLSI Method M26-A for Determining Bactericidal Activity of Antimicrobial Agents modified for 96 well plates.
(§3) A selection of the compounds were used in the above assays against S. aureus (ATCC 25923).

[2] = tested on: S. aureus ATCC 25923; experiment: Minimum Bactericidal Concentration (MBC), CLSI M26-A modified for 96 well plates; settings: planktonic
Protocol: as §1, §2, §3

[3] = tested on: S. aureus ATCC 25923; experiment: Minimum Biofilm Inhibition Concentration (MBIC), 96-well microplate static biofilm assay
Protocol: as §1
Antibiofilm assays were performed to determine the prevention and removal of biofilm. The 96-well microplate assay was used to determine the Minimum Biofilm Inhibition Concentration (MBIC) (Merritt, et al. 2005. Growing and analyzing static biofilms. Curr Protoc Microbiol. Chapter 1, Unit 1.)
The MBIC assay is defined as the lowest concentration of the compound that will inhibit the biofilm. The ASTM E2799-12 Standard Test Method for Testing Pseudomonas Biofilm using the Minimum Biofilm Eradicating Concentration (MBEC) assay was used to determine biofilm removal. The MBEC assay is defined as the lowest concentration of compound that will eradicate the biofilm. The qualitative MBEC is determined using a microplate reader at absorbance 630 nm and the quantitative MBEC is determined using log10 reduction.
as §3

[4] = tested on: S. aureus ATCC 25923; experiment: Minimum Biofilm Eradicating Concentration (MBEC) assay, ASTM E2799-12; settings: biofilm eradication
Protocol: Antibacterial and antibiofilm assay were performed on human pathogens and industrial microorganisms associated with contamination: Staphylococcus aureus (ATCC 25923 and ATCC 12600), S. epidermidis (ATCC 12228 and ATCC 14990), Pseudomonas aeruginosa (ATCC 27853), E. coli (ATCC 25922), C. albicans ATCC 18804), oral flora bacteria Streptococcus mutans (ATCC 25175) and S. gordonii (ATCC 33399), and/or marine biofilm former Cobetia marina (ATCC 25374). The MBIC assay is defined as the lowest concentration of the compound that will inhibit the biofilm. The ASTM […]-12 Standard Test Method for Testing Pseudomonas Biofilm using the Minimum Biofilm Eradicating Concentration (MBEC) assay was used to determine biofilm removal. The MBEC assay is defined as the lowest concentration of compound that will eradicate the biofilm. The qualitative MBEC is determined using a microplate reader at absorbance 630 nm and the quantitative MBEC is determined using log10 reduction. A selection of the compounds were used in the above assays against S. aureus (ATCC 25923).

CCCCNP(=O)(O)OC(C)=O [X is NH2; A is (CH2)3CH3, acetic (1-butyl phosphoramidic) anhydride]
0.25 % w/v: MIC [1] | MBC [2] | MBIC [3] | MBEC [4]
